Test results reported in patent US8895558B2, “Arylpiperazine-containing pyrrole 3-carboxamide derivatives for treating depressive disorders” (Green Cross Corporation, priority 2008, dated 2014).
pIC50: −log10 of the molar value. Counter-ions that a name gives are not always drawn.

Columns and labels:
[1] = target: T1, human recombinant serotonin 5-HT2A receptor (Homo sapiens, UniProt P28223); assay: Binding affinity for serotonin 5-HT2A receptor ([3H]Ketanserin); conditions: CHO-K1 expressed receptor, 1 nM [3H]Ketanserin
T1 construct: purchased PerkinElmer Life and Analytical Sciences, USA; host or cells: CHO-K1
T1 sequence (P28223 whole entry): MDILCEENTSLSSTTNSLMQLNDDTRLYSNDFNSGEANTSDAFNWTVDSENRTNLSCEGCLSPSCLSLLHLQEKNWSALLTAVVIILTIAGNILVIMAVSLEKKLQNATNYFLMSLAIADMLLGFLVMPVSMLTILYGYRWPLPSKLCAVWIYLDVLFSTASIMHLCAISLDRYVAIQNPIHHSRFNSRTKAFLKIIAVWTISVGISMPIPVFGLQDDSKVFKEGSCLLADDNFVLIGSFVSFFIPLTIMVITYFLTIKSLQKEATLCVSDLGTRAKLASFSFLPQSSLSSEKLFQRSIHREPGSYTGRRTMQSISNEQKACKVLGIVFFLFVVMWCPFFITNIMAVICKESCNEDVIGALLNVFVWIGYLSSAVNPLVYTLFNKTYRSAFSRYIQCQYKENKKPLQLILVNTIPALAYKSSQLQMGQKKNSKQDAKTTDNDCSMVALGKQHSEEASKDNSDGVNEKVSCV
In short: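 Membranes from CHO-K1 cells expressing recombinant receptor (5 ug/well) incubated 60 min at 27 with 1 nM [3H]ketanserin in 50 mM Tris-HCl pH 7.4, 4 mM CaCl2, 0.1% ascorbic acid; mianserin 20 uM defined nonspecific binding. Filtration and counting; IC50 by nonlinear regression over 7-8 concentrations in duplicate.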

[2] = target: T2, human serotonin transporter (Homo sapiens, UniProt P31645); assay: Binding affinity for serotonin transporter ([3H]Imipramine); conditions: HEK-293 membranes, 2 nM [3H]Imipramine
T2 construct: purchased PerkinElmer; host or cells: HEK-293
T2 sequence (P31645 whole entry): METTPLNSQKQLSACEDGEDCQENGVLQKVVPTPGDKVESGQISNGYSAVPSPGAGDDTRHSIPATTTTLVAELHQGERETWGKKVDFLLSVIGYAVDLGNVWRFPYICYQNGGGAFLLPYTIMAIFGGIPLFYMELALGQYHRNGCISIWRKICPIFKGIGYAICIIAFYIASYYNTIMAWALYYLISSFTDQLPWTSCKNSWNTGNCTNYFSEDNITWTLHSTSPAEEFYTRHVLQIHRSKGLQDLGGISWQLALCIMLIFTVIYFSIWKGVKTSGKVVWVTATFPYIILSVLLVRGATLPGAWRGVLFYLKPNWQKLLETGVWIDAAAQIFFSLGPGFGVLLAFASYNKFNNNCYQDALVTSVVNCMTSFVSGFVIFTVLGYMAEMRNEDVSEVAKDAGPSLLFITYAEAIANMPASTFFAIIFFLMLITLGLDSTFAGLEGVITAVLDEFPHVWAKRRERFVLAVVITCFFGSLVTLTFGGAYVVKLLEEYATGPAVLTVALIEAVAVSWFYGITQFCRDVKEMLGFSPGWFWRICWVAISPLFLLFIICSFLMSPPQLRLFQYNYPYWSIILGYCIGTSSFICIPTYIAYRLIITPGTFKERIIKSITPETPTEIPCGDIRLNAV
In short: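 Membranes from HEK-293 cells expressing human serotonin transporter (5 ug/well) incubated with compound and 2 nM [3H]imipramine in 50 mM Tris-HCl pH 7.4, 120 mM NaCl, 5 mM KCl, 30 min at 27. Bound ligand separated by filtration onto glass fiber filters presoaked in 0.5% PEI, washed with ice-cold Tris-HCl/0.9% NaCl.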

[3] = target: T3, human recombinant 5-HT2C receptor (Homo sapiens, UniProt P28335); assay: Binding affinity for serotonin 5-HT2C receptor ([3H]Mesulergine); conditions: CHO-K1 membranes, 1.3 nM [3H]Mesulergine
T3 construct: purchased PerkinElmer
T3 sequence (P28335 33-458): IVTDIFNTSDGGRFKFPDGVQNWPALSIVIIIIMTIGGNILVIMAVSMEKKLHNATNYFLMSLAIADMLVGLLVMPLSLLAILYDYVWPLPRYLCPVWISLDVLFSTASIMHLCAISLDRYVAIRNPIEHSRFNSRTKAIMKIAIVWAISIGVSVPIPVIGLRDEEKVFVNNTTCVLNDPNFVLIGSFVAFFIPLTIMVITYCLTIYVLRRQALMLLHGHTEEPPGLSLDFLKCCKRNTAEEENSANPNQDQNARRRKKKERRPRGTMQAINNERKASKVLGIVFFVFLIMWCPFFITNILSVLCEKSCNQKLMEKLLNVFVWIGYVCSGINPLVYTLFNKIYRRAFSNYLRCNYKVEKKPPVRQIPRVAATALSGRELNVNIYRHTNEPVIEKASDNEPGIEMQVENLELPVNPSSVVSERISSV
In short: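 Competition binding with [3H]mesulergine; nonspecific binding defined with 100 uM mianserin. Incubation 60 min at 27, stopped by rapid filtration onto glass fiber filters presoaked in 0.5% PEI.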

| SMILES | pIC50 [1] | pIC50 [2] | pIC50 [3] |
| --- | --- | --- | --- |
| Cc1[nH]c(-c2ccccc2)cc1C(=O)NCCCN1CCN(c2cccc(Cl)c2Cl)CC1 [Example 25, N-(3-(4-(2,3-dichlorophenyl)piperazin-1-yl)propyl)-2-methyl-5-phenyl-1H-pyrrole-3-carboxamide] | 6.52 | 6.88 | 6.22 |
| Cc1cccc(N2CCN(CCCCNC(=O)c3cc(-c4ccccc4)n(C)c3C)CC2)c1C [Example 35, N-(4-(4-(2,3-dimethylphenyl)piperazin-1-yl)butyl)-1,2-dimethyl-5-phenyl-1H-pyrrole-3-carboxamide hydrochloride] | 7.21 | 6.83 | 7.21 |
| CCCn1c(-c2ccccc2)cc(C(=O)NCCN2CCN(c3cccc(Cl)c3Cl)CC2)c1C [Example 39, N-(2-(4-(2,3-dichlorophenyl)piperazin-1-yl)ethyl)-2-methyl-5-phenyl-1-propyl-1H-pyrrole-3-carboxamide hydrochloride] | 6.39 | 7.49 | 6.51 |
| Cc1c(C(=O)N(C)CCCN2CCN(c3cccc(Cl)c3Cl)CC2)cc(-c2ccccc2)n1C [Example 37, N-(3-(4-(2,3-dichlorophenyl)piperazin-1-yl)propyl)-N,1,2-trimethyl-5-phenyl-1H-pyrrole-3-carboxamide hydrochloride] | 7.41 | 7.01 | 7.46 |
| Cc1[nH]c(C(C)(C)C)cc1C(=O)NCCCN1CCN(c2cccc(Cl)c2Cl)CC1 [Example 127, 5-tert-butyl-N-(3-(4-(2,3-dichlorophenyl)piperazin-1-yl)propyl)-2-methyl-1H-pyrrole-3-carboxamide hydrochloride] | 6.97 | 6.07 | 5.86 |
| Cc1c(C(=O)NCCCN2CCN(c3cccc(Cl)c3Cl)CC2)cc(-c2ccccc2)n1CC1CCCCC1 [Example 22, 1-(cyclohexylmethyl)-N-(3-(4-(2,3-dichlorophenyl)piperazin-1-yl)propyl)-2-methyl-5-phenyl-1H-pyrrole-3-carboxamide] | 5.36 | 6.39 | 5.99 |
| CCn1c(-c2ccccc2)cc(C(=O)NCCCCN2CCN(c3cccc(Cl)c3Cl)CC2)c1C [Example 43, N-(4-(4-(2,3-dichlorophenyl)piperazin-1-yl)butyl)-1-ethyl-2-methyl-5-phenyl-1H-pyrrole-3-carboxamide hydrochloride] | 7.55 | 7.19 | 7.55 |
| Cc1c(C(=O)NCCCN2CCN(c3cccc(Cl)c3Cl)CC2)cc(-c2ccccc2)n1C [Example 10, N-(3-(4-(2,3-dichlorophenyl)piperazin-1-yl)propyl)-1,2-dimethyl-5-phenyl-1H-pyrrole-3-carboxamide] | 7.34 | 7.21 | 7.92 |
| O=C(NCCCN1CCN(c2cccc(Cl)c2Cl)CC1)c1cc(-c2ccccc2)[nH]c1Cl [Example 114, 2-chloro-N-(3-(4-(2,3-dichlorophenyl)piperazin-1-yl)propyl)-5-phenyl-1H-pyrrole-3-carboxamide] | 7.66 | 7.23 | 6.97 |
| CCCn1c(-c2ccccn2)cc(C(=O)NCCN2CCN(c3cccc(Cl)c3Cl)CC2)c1C [Example 96, N-(2-(4-(2,3-dichlorophenyl)piperazin-1-yl)ethyl)-2-methyl-1-propyl-5-(pyridin-2-yl)-1H-pyrrole-3-carboxamide dihydrochloride] | 6.39 | 6.42 | 6.21 |
| Cc1cccc(N2CCN(CCCCNC(=O)c3cc(-c4ccc(Cl)cc4)[nH]c3C)CC2)c1C [Example 46, 5-(4-chlorophenyl)-N-(4-(4-(2,3-dimethylphenyl)piperazin-1-yl)butyl)-2-methyl-1H-pyrrole-3-carboxamide hydrochloride] | 7.49 | 7.01 | 7.06 |
| CCn1c(-c2ccc(Cl)cc2)cc(C(=O)NCCN2CCN(c3cccc(Cl)c3Cl)CC2)c1C [Example 69, 5-(4-chlorophenyl)-N-(2-(4-(2,3-dichlorophenyl)piperazin-1-ypethyl)-1-ethyl-2-methyl-1H-pyrrole-3-carboxamide hydrochloride] | 6.39 | 6.66 | 7.54 |
| Cc1c(C(=O)NCCCCN2CCN(c3cccc(Cl)c3Cl)CC2)cc(-c2ccccc2)n1C [Example 36, N-(4-(4-(2,3-dichlorophenyl)piperazin-1-yl)butyl)-1,2-dimethyl-5-phenyl-1H-pyrrole-3-carboxamide hydrochloride] | 7.55 | 7.03 | 7.49 |
| Cc1cccc(N2CCN(CCCNC(=O)c3cc(-c4ccccc4)n(CC(C)C)c3C)CC2)c1C [Example 27, N-(3-(4-(2,3-dimethylphenyl)piperazin-1-yl)propyl)-1-isobutyl-2-methyl-5-phenyl-1H-pyrrole-3-carboxamide] | 6.05 | 6.46 | 5.89 |
| CCCCn1c(-c2ccccc2)cc(C(=O)NCCCN2CCN(c3cccc(Cl)c3Cl)CC2)c1C [Example 71, 1-butyl-N-(3-(4-(2,3-dichlorophenyl)piperazin-1-yl)propyl)-2-methyl-5-phenyl-1H-pyrrole-3-carboxamide hydrochloride] | 6.73 | 6.19 | 7.49 |
| Cc1cccc(N2CCN(CCCNC(=O)c3cc(-c4ccccc4)[nH]c3C)CC2)c1C [Example 24, N-(3-(4-(2,3-dimethylphenyl)piperazin-1-yl)propyl)-2-methyl-5-phenyl-1H-pyrrole-3-carboxamide] | 6.52 | 7.11 | 6.21 |
| Cc1[nH]c(-c2ccccc2)cc1C(=O)NCCCCN1CCN(c2cccc(Cl)c2Cl)CC1 [Example 41, N-(4-(4-(2,3-dichlorophenyl)piperazin-1-yl)butyl)-2-methyl-5-phenyl-1H-pyrrole-3-carboxamide hydrochloride] | 7.89 | 7.68 | 7.85 |
| COc1cccc(-c2cc(C(=O)NCCCN3CCN(c4cccc(Cl)c4Cl)CC3)c(C)[nH]2)c1 [Example 83, N-(3-(4-(2,3-dichlorophenyl)piperazin-1-yl)propyl)-5-(3-methoxyphenyl)-2-methyl-1H-pyrrole-3-carboxamide hydrochloride] | 7.70 | 7.23 | 7.70 |
| Cc1c(C(=O)NCCCN2CCN(c3cccc(Cl)c3)CC2)cc(-c2ccccc2)n1-c1ccc(F)cc1 [Example 14, N-(3-(4-(3-chlorophenyl)piperazin-1-yl)propyl)-1-(4-fluorophenyl)-2-methyl-5-phenyl-1H-pyrrole-3-carboxamide] | 7.64 | 7.10 | 6.35 |
| Cc1c(C(=O)NCCCN2CCN(c3ccc(F)cc3)CC2)cc(-c2ccccc2)n1C [Example 155, N-(3-(4-(4-Fluorophenyl)piperazin-1-yl)propyl)-1,2-dimethyl-5-phenyl-1H-pyrrole-3-carboxamide] | 7.66 | 6.74 | 6.31 |
| Cc1cc(C(=O)NCCCN2CCN(c3cccc(Cl)c3Cl)CC2)c(C)n1-c1ccccc1 [Example 170, N-(3-(4-(2,3-dichlorophenyl)piperazin-1-yl)propyl)-2,5-dimethyl-1-phenyl-1H-pyrrole-3-carboxamide] | 6.88 | 7.70 | 7.01 |
